Assay results published in the METLIN SMRT retention time set (Domingo-Almenara et al. 2019).

Assay: gradient 5% acetonitrile 3 min, to 50% in 2 min, to 85% in 15 min, held 3 min, 100 µL/min
Details: column: Zorbax Extend-C18 2.1 x 50 mm; eluents: water / acetonitrile, 0.1% formic acid
How it was run: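 Retention times come from adduct peaks that were picked computationally and then checked by hand. The standards, pure and pooled in mixtures of ~100 molecules, were run on a Zorbax Extend-C18 column (2.1 × 50 mm, 1.8 μm) at 100 μL/min with water and acetonitrile, each with 0.1% formic acid. Detection was by quadrupole time-of-flight mass spectrometry in positive and negative ionization mode, with a dead volume of 40 μL and a dwell volume of 900 μL.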

RP-LC retention time [s]	SMILES
707	CC(C)NC(=O)N(C1CC1)C1CCOC2(CCN(C(=O)c3ccco3)CC2)C1 (centres undefined)
753	Cc1ccccc1CNC1=NCCNC12CCN(S(=O)(=O)c1ccc(Cl)cc1)CC2
820	CCN(C(=O)C1C(=O)NC2(C)CC1c1ccccc1O2)c1ccccc1 (centres undefined)
595	CC(C)S(=O)(=O)N1CCCC(Cn2cc(COc3ccc4c(c3)CCC4)nn2)C1 (centres undefined)
807	Cc1cccc(NC(=O)C2CCCCN2S(=O)(=O)c2cccs2)n1 (centres undefined)
861	CCn1cc(-c2ccc(F)cc2)cc1C(=O)O
769	CCOC(=O)c1ccc(Oc2ncnc(N)c2[N+](=O)[O-])cc1
712	CCCCCC(=O)Nc1cc(-c2nc3ccccc3[nH]2)ccc1C
990	O=C(NCc1ccc2c(c1)CCCN2C(=O)C1CCC1)c1ccc(C(F)(F)F)cc1
532	CCn1cc(CN2CCC(N3C(=O)C4(CCCCC4)C3c3ccncc3)CC2)c(C)n1 (centres undefined)
928	CN(C)S(=O)(=O)c1ccc2c(c1)N(CC(=O)Nc1cccc(F)c1)C(=O)C1CCCCN21 (centres undefined)
1040	CC(C)c1ccc(N2C=C(C#N)S(=O)(=O)c3ccccc32)cc1
884	CCOC(=O)CCNC(=O)C1CCCN(c2nccnc2Oc2ccc(C)cc2)C1 (centres undefined)
806	CCOC(=O)c1nc(Nc2ccc(OCC)cc2)c2ccccc2n1
579	CCCc1nc2cccnc2n1C1CCN(C(=O)c2ccc(N3CCCC3=O)cc2)C1 (centres undefined)
664	CC1CCN(CC2CCN(S(=O)(=O)c3ccccc3Cl)CC2)CC1
1240	CCc1nc2cc(-c3noc(COc4cccc(Cl)c4)n3)ccc2o1
1290	Cc1ccc(C2Cn3nnc(-c4nc(-c5ccccc5Cl)no4)c3CO2)c(C)c1 (centres undefined)
1110	CCSc1nc2ccc(NS(=O)(=O)c3ccc(C)cc3C)cc2s1
826	O=C(Cn1cc(-c2ccccc2)c2ncn(C3CC3)c(=O)c21)Nc1ccc2c(c1)OCO2
720	Cc1ccc(CNC(=O)C2CCN(S(=O)(=O)c3c(C)[nH]c(C)c3C(=O)N3CCCC3)CC2)cc1
582	O=C(NCc1cccnc1)c1ccc(-c2ccc(N3CCSCC3)nc2)cc1
564	COc1ccc(CCS(=O)(=O)NCC2CCN(Cc3cccs3)CC2)cc1

RP-LC retention time [s]	SMILES
822	COc1cccc(C(=O)N2CCc3c(c(-c4nnc(-c5ccccc5Cl)o4)nn3C)C2)c1OC
1060	COCCC(=O)N(C)Cc1cccnc1Oc1ccccc1
607	CCC(=O)N1CCN(c2nc3c(s2)CC(C(=O)Nc2ccc(C)cc2Cl)CC3)CC1 (centres undefined)
818	CC(C)CC(=O)N1CCC(Cc2nnc(-c3ccccc3)o2)CC1
615	CCC(C(=O)NCc1cccnc1)n1c2ccccc2c2cnn(C)c(=O)c21 (centres undefined)
932	CCn1cc(-c2ccc(C)cc2)cc1C(=O)N1CCOCC1
621	O=C(CSc1nccn1Cc1ccc2c(c1)OCO2)Nc1ccccc1F
947	CC(Cc1ccco1)NC(=O)c1ccc2nc(Cc3ccccc3)oc2c1 (centres undefined)
561	CCOc1ccccc1NC(=O)N1CC(N(CC)C2CCOCC2)C1
842	Cc1ccc(NC(=O)C2CCN(C(=O)c3ncn4c3COC(c3ccc(F)cc3)C4)CC2)c(Cl)c1 (centres undefined)
810	Cc1noc(C)c1C1CCCN1C(=O)Cc1cccc(Cl)c1 (centres undefined)
884	CCn1c(=O)c(C)nc2cc(-c3noc(C4CC(=O)N(c5ccc(C)cc5)C4)n3)ccc21 (centres undefined)
776	COc1nn(C)cc1C(=O)Nc1ccccc1SC
621	O=C(c1cc2c(s1)CCC(C(=O)N1CCN(c3ccccn3)CC1)C2)N1CCCCC1 (centres undefined)
681	CCOC(=O)c1c(C)[nH]c(C(=O)N2CCC(C(C)C(=O)N3CCOCC3)CC2)c1C (centres undefined)
717	Cc1ccc(OCc2ccc(-c3nc(C#N)c(NCCCN(C)C)o3)o2)cc1
685	Cc1ccc(-c2nc(-c3ccc4c(c3)ncn4CCN3CCOCC3)no2)cc1C
1030	O=C(Nc1cnc(-c2cccc(Cl)c2)nc1)c1ccsc1
904	CC(=O)Oc1ccc(C(=O)N2CCCc3ccccc32)cc1
607	O=C(O)CC1Sc2ccccc2NC1=O (centres undefined)
631	COc1cc(NC(=O)NCC(c2cccnc2)c2c[nH]c3ccccc23)cc(OC)c1OC (centres undefined)
636	Cn1nc(C(=O)N2C[C@@H]3C[C@H](NC(=O)c4cccnc4)[C@H]2C3)c2ccccc21
956	CCOC(=O)c1ccc(NC(=O)C2(c3cccs3)CCOCC2)cc1

RP-LC retention time [s]	SMILES
790	CC(CCc1ccccc1)NC(=O)C1CCN(Cc2cn(C)c3ccc(Cl)cc23)CC1 (centres undefined)
735	O=C(NC1CC1)[C@@H]1C[C@H](Oc2ccccc2)CN1C(=O)C1CCC1
688	CCNC(=O)N1CC(Oc2ccc(-c3nc(C)no3)cc2)C1
686	Cc1ccc(S(=O)(=O)N2CCN(CCc3cn(C)c4ncccc34)CC2)cc1Cl
1280	Cc1ccc(-c2nc(N)n(C(=O)c3ccc(C(C)(C)C)cc3)n2)cc1
718	CC(C)(C)NCCC(O)c1cc(C(F)(F)F)nc2c(C(F)(F)F)cccc12 (centres undefined)
756	Cc1ccc(-n2nc(C)c3c(C)c(CCC(=O)N4CCN(c5ccccn5)CC4)c(C)nc32)cc1
722	CC1CCN(c2cncnc2-n2cc(NC(=O)NC(C)(C)C)cn2)CC1
654	Cc1[nH]c(=O)[nH]c(=O)c1CC(=O)N1CCN(c2cccc(Cl)c2Cl)CC1
916	CCC(C(=O)NCCc1c[nH]c2ccccc12)n1c2ccccc2c2cnn(C)c(=O)c21 (centres undefined)
804	Cc1ccc(C(C)NC(=O)CN2C(=O)NC3(CCCCC3)C2=O)cc1 (centres undefined)
634	CC(C)CN1CCN(C(=O)CN2CCN(Cc3ccc(F)cc3Cl)C2=O)CC1
1130	CCCc1noc(-c2ccc(-n3ncc(C(=O)N4CCC(C)CC4)c3C)nc2)n1
757	CCOc1ccc(C(=O)NCc2c(C)noc2C)cc1OCC
673	CCc1noc2nc(CCC(=O)NCCCN3CCCC(C)C3)nc(N3CCCCC3)c12 (centres undefined)
715	O=C(NCCN1CCCCCC1)C1CCCN(c2ncc(-c3cccc(F)c3)cn2)C1 (centres undefined)
853	O=C(Nc1cc(F)cc(F)c1)c1csc(-c2ccc(N3CCCC3)nc2)n1
642	CCCNC(=O)C1CCN(c2ccc(SCC(=O)Nc3cccc(C)c3C)nn2)CC1
711	CCCn1cc(-c2ccncc2)cc1C(=O)NCc1cc(F)cc(F)c1
876	COc1cccc(C(=O)NC2CCN(c3cc(C)cc(C)c3)C2=O)c1 (centres undefined)
856	CCN1c2cc(C(=O)NCc3ccc(SC)cc3)ccc2C(=O)N2CCCCC21 (centres undefined)
1220	O=c1c2cc(-c3ccc(F)cc3)nn2cnn1Cc1nc(-c2ccc3c(c2)OCO3)no1
842	CC(NC(=O)Cn1c(C(F)(F)F)nc2ccccc21)c1ccc2c(c1)OCCCO2 (centres undefined)

RP-LC retention time [s]	SMILES
612	Cc1cccc(-c2nn3c(c2-c2ccnc4ccc(C(N)=O)cc24)CCC3)n1
644	Cn1c(C2CCN(C(=O)NCc3ccc(F)cc3)CC2)cc(=O)n2nccc12
792	Cc1cc2nc(CSc3nnc(-c4cccc(Cl)c4)o3)cc(=O)n2o1
615	Cc1nnc(-c2coc(S(=O)(=O)N3CCN(C4CCCCC4)CC3)c2)o1
1130	Cc1nn(-c2ccc(-c3ccccc3)nn2)c(C)c1S(=O)(=O)NCCC(C)C
663	NC(=O)C1CCc2sc(C(=O)N3CCCCCC3)cc2C1 (centres undefined)
916	CCc1nnc(-c2cn(CC(=O)Nc3cc(Cl)c(OC)cc3OC)c3ccccc23)o1
613	CCN(Cc1ccc(OC)cc1)Cc1cc(=O)c2cc(F)ccc2[nH]1
763	Cc1ccccc1CNS(=O)(=O)c1cn(CC(C)C)c2ncccc12
768	COc1ccc(-c2n[nH]c3c2C(c2cccnc2)N(c2ccc(Br)cc2)C3=O)cc1 (centres undefined)
631	O=C(c1cccs1)N1CCN(c2ccc3nnc(-c4ccco4)n3n2)CC1
992	Cc1cc(-c2nnc(-c3ccc(F)cc3)o2)c(C)n1CC(=O)NCc1cc(F)cc(F)c1
1160	Cc1ccc2c(c1)sc1nc(C)c(S(=O)(=O)Nc3ccc(Cl)cc3)c(=O)n12
1170	O=C(NC1CCCCCC1)C1CCCN(c2nccnc2Sc2ccccc2)C1 (centres undefined)
876	CC(=O)N1c2ccc(S(=O)(=O)N3CCCC3)cc2CC1C(=O)Nc1c(C)cc(C)cc1C (centres undefined)
605	CSc1ccc(-c2nc3cnccn3c2Nc2cccc(C(=O)NCCN(C)C)c2)cc1
673	O=C(Cc1ccccc1)Nc1c(C(=O)N2CCN(c3ccccn3)CC2)oc2ccccc12
620	Cc1ccc2c(c1)N(S(C)(=O)=O)CC(C)O2 (centres undefined)
1060	CN(Cc1ccccc1)C(=O)C1(c2ccc(NC(=O)C3CC3)cc2)CCCCC1
731	CCN1CCN(c2nc(F)c(F)c(S(=O)(=O)CCNc3cccc(C(F)(F)F)c3)c2F)CC1
